Measured values: patent US5478807A, “Use of relaxin in the treatment of bradycardia” (Genentech, Inc., priority 1992, dated 1995)
Like-named read-outs stand apart in the source and are kept apart here.

Legend:
[1] = biological target: T1, relaxin binding sites in the rat uterus (Rattus norvegicus, UniProt Q6R6I6); assay: Displacement of 32P-relaxin binding in rat uterus tissue sections (autoradiography)
T1 construct: The frozen tissues were sectioned to 16 μm thickness; from tissue; host or cells: rat uterus (uterine horn, cervix) frozen sections
T1 sequence (Q6R6I6 1-758): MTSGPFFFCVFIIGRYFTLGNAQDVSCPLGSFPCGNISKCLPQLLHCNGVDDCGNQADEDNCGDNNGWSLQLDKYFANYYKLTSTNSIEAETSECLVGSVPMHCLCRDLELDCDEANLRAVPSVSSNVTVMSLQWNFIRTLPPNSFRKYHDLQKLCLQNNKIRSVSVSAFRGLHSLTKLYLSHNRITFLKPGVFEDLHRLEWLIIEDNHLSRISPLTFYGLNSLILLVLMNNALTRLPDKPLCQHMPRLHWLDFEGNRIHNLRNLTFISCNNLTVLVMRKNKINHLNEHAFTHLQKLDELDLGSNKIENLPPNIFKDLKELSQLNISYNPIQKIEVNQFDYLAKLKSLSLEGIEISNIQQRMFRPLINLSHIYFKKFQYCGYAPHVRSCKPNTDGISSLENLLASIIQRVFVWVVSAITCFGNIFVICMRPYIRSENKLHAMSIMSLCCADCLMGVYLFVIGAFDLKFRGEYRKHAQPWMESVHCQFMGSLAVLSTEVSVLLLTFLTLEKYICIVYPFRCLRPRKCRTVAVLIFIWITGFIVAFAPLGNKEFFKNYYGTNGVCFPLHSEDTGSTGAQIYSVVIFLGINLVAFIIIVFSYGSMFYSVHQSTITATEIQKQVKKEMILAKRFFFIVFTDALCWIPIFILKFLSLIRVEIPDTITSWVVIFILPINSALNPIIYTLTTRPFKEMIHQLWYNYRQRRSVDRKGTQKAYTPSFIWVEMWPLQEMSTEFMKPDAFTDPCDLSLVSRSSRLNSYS
Experimental: (§1) Ten-week-old normal male and cyclic female Sprague-Dawley rats (Charles River Breeding Laboratories, Wilmonton, Mass.) were used for binding specificity and binding displacement experiments. These were given food and water ad libidium and housed in a room with the ambient temperature controlled around 21° C.
The frozen tissues were sectioned to 16 μm thickness using a Reichert-Jung Model 2800 Frigocut cryostat (Cambridge Instruments). Tissue sections were fixed onto gelatin/chromium potassium sulfate treated microscope slides by warming, and immediately refrozen and stored at -80° C. overnight or longer. […]
Regions of binding were determined by overlaying the autoradiographs with adjacent sections counterstained with hematoxylin-eosin. […] Pseudocolor reconstruction and quantitative analysis of ^32 P-relaxin binding autoradiographs were performed with a RAS-3000 image analysis system (Amersham). The OD or radioactivities (cpm) of bound ^32 P relaxin (maximum binding in a particular region) were quantified by computerized densitometry based on parallel sets of ^32 P-relaxin standards (ranging from 50 to 2000 cpm) blotted onto nitrocellulose membranes (Trans-Blot SF, Bio-Rad, Richmond, Calif.). […] The dissociation constant (Kd) for relaxin was calculated by the method of Cheng and Prusoff [Biochem. Pharmacol. 22, 3099-3108 (1973)].

[2] = biological target: T2, relaxin receptors in the atria of rat heart (Rattus norvegicus, UniProt Q6R6I6); assay: Displacement of 32P-relaxin binding in rat heart tissue sections (autoradiography); details: for Kd: read-out: dissociation constant (Kd)
T2 construct: The frozen tissues were sectioned to 16 μm thickness; from tissue; host or cells: rat heart (right and left atrium) frozen sections, from normal and from hormone-treated gonadectomized rats
T2 sequence (Q6R6I6 1-758): T1 sequence (Q6R6I6 1-758)
Experimental: as §1
For hormonal control experiments, 10-11-week-old female rats were ovariectomized for two weeks and then injected s.c. with 10 μg estradiol cyclopentyl propionate in a […] vehicle or with vehicle alone. Likewise, 10-11-week-old male rats were castrated for 2 weeks and were injected with either 10 μg estradiol cyclopentyl propionate, 10 μg testosterone, or vehicle alone. The rats were sacrificed 7 days later by asphyxiation with CO2. The relevant tissues were removed rapidly and frozen in powdered dry ice immediately.
The frozen tissues were sectioned to 16 μm thickness using a Reichert-Jung Model 2800 Frigocut cryostat (Cambridge Instruments). Tissue sections were fixed onto gelatin/chromium potassium sulfate treated microscope slides by warming, and immediately refrozen and stored at -80° C. overnight or longer.
For binding of ^32 P-relaxin to the tissue sections, frozen slides were prewashed with binding buffer (Hank's balanced salt solution supplemented with 20 mMHEPES, pH 7.2, 1 mg/ml BSA, 0.1 mM PMSF, and 1 μg/ml leupeptin) at 4° C. for 1.5-2 hours. The tissue sections were then covered with 600-700 μl of 100 pM ^32 P-relaxin with or without excess unlabeled relaxin and other competing agents as specificity control, and incubated at 4° C. for one hour. The slides were washed 3 times for 15-30 minutes each, with binding buffer. The slides were air-dried and mounted on filter paper and exposed to Hyperfilm-βMAX (Amersham) for 3-5 days.
Regions of binding were determined by overlaying the autoradiographs with adjacent sections counterstained with hematoxylin-eosin. For relaxin binding displacement experiments, consecutive 16 μm sections were incubated with 100 pM of ^32 P-relaxin in the absence and presence of increasing concentrations (serial three-fold increases) of unlabeled relaxin in the range of 0.1-100 nM. Pseudocolor reconstruction and quantitative analysis of ^32 P-relaxin binding autoradiographs were performed with a RAS-3000 image analysis system (Amersham). The OD or radioactivities (cpm) of bound ^32 P relaxin (maximum binding in a particular region) were quantified by computerized densitometry based on parallel sets of ^32 P-relaxin standards (ranging from 50 to 2000 cpm) blotted onto nitrocellulose membranes (Trans-Blot SF, Bio-Rad, Richmond, Calif.). The binding inhibition data were fit to a four parameter equation to obtain the ED50 (the concentration of unlabeled relaxin yielding 50% displacement of the binding of ^32 p-relaxin). The dissociation constant (Kd) for relaxin was calculated by the method of Cheng and Prusoff [Biochem. Pharmacol. 22, 3099-3108 (1973)].

[3] = tested on: rat isolated atrial preparations; details: cited from earlier work

Kd ([1]; rat uterus (uterine horn, cervix), displacement of 100 pM 32P-relaxin, mean±S.E. of two regions, read-out: dissociation constant (Kd)): 1.3 ± 0.22 nM
extent of displacement of 32P-relaxin binding ([1]; uterus, increasing concentrations of unlabeled relaxin): partial displacement
displacement of the binding of 32P-relaxin ([2]; 100 nM unlabeled relaxin, atria of normal male rat heart): fully displaced
Kd ([2]; atria of estrogen-treated ovariectomized rat heart): 0.86 ± 0.35 nM
Kd ([2]; atria of normal female rat heart, displacement of 32P-H2 relaxin, mean±S.E. of two regions): 1.37 ± 0.13 nM
extent of displacement of 32P-relaxin binding ([2]; heart, increasing concentrations of unlabeled relaxin): total displacement
Substance: relaxin
displacement of the binding of 100 pM 32P-relaxin ([2]; 100 nM competitor, normal female rat heart): displacement of the binding of 100 pM ^32 P-relaxin by 100 nM unlabeled relaxin
chronotropic and inotropic effects [3]: positive chronotropic and inotropic effects
